# According to paper PMC7406636, “In vivo and in silico characterization of apocynin in reducing organ oxidative stress: A pharmacokinetic and pharmacodynamic study” (Pharmacology Research & Perspectives, 2020):
# Where two headings read alike, the source gives them in different places.
# Tests used:
# [1] = PK simulation and model analysis using Phoenix WinNonlin 8.1 (non-compartmental and compartmental); type: in vivo; conditions: CD1, mouse, plasma; for AUC / clearance / Vd: iv, 5 mg/kg
# Description: PK parameters simulation was performed using the Phoenix WinNonlin 8.1 software (Certara.com). […] Data collected from sampling time 1‐360 minutes after iv injection were then pooled (n = 3) and tested against various compartmental models for a best fit using Phoenix WinNonlin 8.1 software. Parameters included the Akaike's information criterion (AIC), Bayesian information criteria (BIC) and corrected AIC (AICc) calculated using the equation: AICc = AIC +2 × nParm (nParm + 1)/(nObs − nParm − 1). ^21
# [2] = system: O2·‐ production in tissue homogenates; assay: O2·- production in tissue homogenates by lucigenin-chemiluminescence after iv injection (PD profile); type: in vivo, mouse; conditions: iv 5 mg/kg
# Description: All studies were performed in accordance with the protocols approved by the Home Office under the Animals (Scientific Procedures) Act 1986, UK. For the PKPD study, male CD1 mice (Charles River Ltd) at 12 weeks of age with a body weight range between 25 and 30 g were used for the study. Mice were fasted 12 hours before bolus iv injection of apocynin at 5 mg/kg body weight (dosing volume 5 mL/kg) via a lateral tail vein. Control mice were injected with vehicle (solvent of apocynin) at each time points. Four mice/per time points were sacrificed at 0, 1, 2.5, 5, 15, 30, 60 minutes and then at 3, 6, 12, and 24 hours after iv injection of apocynin. Blood samples were collected and centrifuged at 2000 g, 4°C for 10 minutes for plasma collection. Urine samples were collected from bladders. Tissues were harvested for further experiments. ROS production was measured using tissue homogenates by three complementary techniques: lucigenin (5 µmol/L)‐chemiluminescence (Molecular Devices); DHE (2 µmol/L) fluorescence on brain tissue sections, and brain tissue lipid peroxidation by malondialdehyde (MDA) assay as described previously. ^5 The specificity of detection of O2·‐ was confirmed by adding tiron (10 mmol/L), a non‐enzymatic O2·‐ scavenger. The enzymatic sources of O2·‐ production were identified using inhibitors targeting nitric oxide synthase (L‐N^G‐Nitro arginine methyl ester, L‐NAME, 100 μmol/L), the mitochondrial complex‐1 enzymes (rotenone, 50 μmol/L), xanthine oxidase (oxypurinol, 250 μmol/L), flavo‐proteins (diphenyleneiodonium, DPI, 20 μmol/L), or superoxide dismutase (SOD) (200 U/mL). The DHE fluorescence was captured using a Nikon fluorescence microscope (Eclipse Ti2‐E). The fluorescence intensity was quantified from at least three random images per section with three sections/per sample.
# [3] = Apocynin in organs after 16 weeks in drinking water, HFD mouse model (HPLC-MS/MS); type: in vivo; conditions: male, oral, C57BL/6J mice, HFD 16 weeks, apocynin 5 mmol/L in drinking water
# From the text: The mouse model of high‐fat diet (HFD‐induced metabolic disorders and accelerated aging was established as described previously. ^8 Littermates of WT and Nox2KO mice (Jackson Laboratory) on a C57BL/6J background at 7 months of age were randomly assigned (n = 6/per group) to a HFD containing 45% kcal fat (Special Diets Services), or to a normal chow diet (NCD) containing 9.3% kcal fat (LabDiet Ltd) for 16 weeks. Apocynin was supplied in drinking water (5 mmol/L) for the treatment group. Body weights were measured weekly. Mice were sacrificed at 11 months of age and organs were harvested for further experiments.
# The detection of apocynin in tissue sample was performed as described previously with some modifications. ^17 In brief, apocynin was detected using an Accela HPLC coupled to a linear ion‐trap tandem mass spectrometry (LTQ‐Orbitrap XL; Thermo‐Fisher Scientific) (HPLC‐MS/MS) in the negative ion mode. Phenacetin (500 ng/mL) was used as an internal standard in every vial. A reversed‐phase 50 × 2.1 mm ID, […], 175 Å pore C18 Hypersil Gold column (Thermo Scientific) was used with injection volume set at 5 µL for the separation of apocynin and phenacetin. Calibration curve used for PK analysis was constructed by spiking apocynin in mouse plasma using eight calibrators ranging from 1 to 10000 ng/mL with great reproducibility and R ^2 ≥ 0.996 for subsequent 5 separate experiments on different days. […] Limit of detection for apocynin was set up at signal to noise ratio ≥ 3, ^18 which is 1 ng/mL in our system. The limitation of quantification was set up at signal to noise ratio ≥ 10, which is 10 ng/mL in our system. Orbitrap component was used for the full scan spectra of apocynin and diapocynin.
# The HFD study was performed exactly as described previously. ^8 Littermates of WT and Nox2KO mice on a C57BL/6J background (Jackson Laboratory, USA) were bred in our institution from heterozygotes and genotyped. […] Body weights were measured weekly. […] The body weights were recorded and organs were harvested.
# Nox2 = assay: Brain Nox2 expression by immunofluorescence, HFD mouse model; type: in vivo; conditions: HFD brain sections, apocynin 5 mmol/L in drinking water, vs HFD
# Description: The experiments were performed exactly as described previously. ^23 Midbrain (containing hippocampus and ventral tegmental area regions) cryosections were used for the experiments. Primary antibodies were used at 1:250 dilution. Bovine serum albumin (2%) was used in the place of primary antibodies as a negative control. Biotin‐conjugated secondary antibody was used at 1:1000 dilution. Specific binding of antibodies was detected by streptavidin‐Cy3. Images were captured using a Nikon fluorescence microscope (Eclipse Ti2‐E). Fluorescence intensities were quantified as described above.
# [4] = parameters: method as in PMID 25140304; conditions: rats, intraperitoneal injection, urine collected at 20 hours; cited from earlier work
compound,measurement,setting,value
"COc1cc(C(C)=O)ccc1O [Apocynin, 4‐hydroxy‐3‐methoxyacetophenone]",k el,"[1]; NCA, iv 5 mg/kg, n = 3, read-out: Kel (elimination rate constant) (converted)",0.00379 s⁻¹
same,half-life,"[1]; NCA, iv 5 mg/kg, n = 3, read-out: t 1/2 (terminal half-life, plasma) (converted)",3 min
same,AUC,"[1]; male, 1-CA (one compartmental analysis), 0-6 h, read-out: AUC0‐∞",681 ng·h/mL
same,clearance,"[1]; male, 1-CA, 0-6 h, read-out: tvCL1 (typical value of compartmental clearance) (converted)",92.4 mL/min
same,Vd,"[1]; male, 1-CA, 0-6 h, read-out: tvV1 (typical value of compartmental volume of distribution)",0.531 L
same,AUC,"[1]; male, 2-CA (two compartmental analysis), 0-6 h, read-out: AUC0‐∞",711 ng·h/mL
same,clearance,"[1]; male, 2-CA, 0-6 h, read-out: tvCL1 (typical value of compartmental clearance) (converted)",92.3 mL/min
same,Vd,"[1]; male, 2-CA, 0-6 h, read-out: tvV1 (typical value of compartmental volume of distribution)",0.531 L
same,AUC,"[1]; male, 3-CA (three compartmental analysis), 0-6 h, read-out: AUC0‐∞",711 ng·h/mL
same,clearance,"[1]; male, 3-CA, 0-6 h, read-out: tvCL1 (typical value of compartmental clearance) (converted)",92 mL/min
same,Vd,"[1]; male, 3-CA, 0-6 h, read-out: tvV1 (typical value of compartmental volume of distribution)",0.531 L
same,AUC,"[1]; male, NCA, iv 5 mg/kg, n = 3, read-out: AUC0‐30min",643 ng·h/mL
same,AUC,"[1]; male, NCA, iv 5 mg/kg, n = 3, read-out: AUC0‐∞",644 ng·h/mL
same,clearance,"[1]; male, NCA, iv 5 mg/kg, n = 3, read-out: CL (clearance) (converted)",129 mL/min/kg
same,Vd,"[1]; male, NCA, iv 5 mg/kg, n = 3, read-out: V d (central volume of distribution)",0.569 L/kg
same,clearance,"[1]; male, NCA, iv 5 mg/kg, read-out: CL (systemic clearance) (converted)",129 mL/min/kg
same,C0,"[1]; male, NCA, 0-30 min, iv 5 mg/kg, n = 3, read-out: C 0 (extrapolated plasma concentration at time 0)",7360 ng/mL
same,Cmax,"[1]; male, NCA, 0-30 min, iv 5 mg/kg, n = 3, read-out: C max (maximum plasma concentration)",5490 ng/mL
same,inhibition at 5 mg/kg,"[2]; Mus musculus, 1 min, brain homogenates, starting at 1 minute",60.4 ± 25.4%
same,duration of inhibition of brain O2·- production,[2]; brain homogenates,up to 60 minutes
same,start of inhibition of brain O2·- production,[2]; brain homogenates,1 min
same,time at which inhibition of brain O2·- production became significant,[2]; brain homogenates,2.5 min
same,time at which inhibition of brain O2·- production disappeared,[2]; brain homogenates,3 h
same,duration of inhibition of heart O2·- production,[2]; heart homogenates,~ 60 minutes
same,start of inhibition of heart O2·- production,[2]; heart homogenates,1 min
same,time at which inhibition of heart O2·- production became significant,[2]; heart homogenates,2.5 min
same,time at which inhibition of heart O2·- production disappeared,[2]; heart homogenates,3 h
same,duration of inhibition of liver O2·- production,[2]; liver homogenates,~ 60 minutes
same,time at which inhibition of liver O2·- production disappeared,[2]; liver homogenates,3 h
same,onset of inhibition of liver O2·- production,"[2]; liver homogenates, vs time 0 control",≤ 1 min
same,concentration at 16 weeks,"[3]; brain, read-out: brain apocynin concentration at end of treatment",5370 ± 1610 ng/g
same,concentration at 16 weeks,"[3]; heart, read-out: heart apocynin concentration at end of treatment",1800 ± 1490 ng/g
same,concentration at 16 weeks,"[3]; liver, read-out: liver apocynin concentration at end of treatment",4820 ± 1340 ng/g
same,effect on brain Nox2 expression,Nox2,significantly reduced
same,apocynin recovered in unchanged form in urine,[4],80%
